This note sets out measurements from US11267845B2, “Inhibitors of CD73-mediated immunosuppression” (ARCUS BIOSCIENCES, INC., priority 2016, dated 2022).

The structures appear in SMILES notation.

For this experiment, the target named is T1, CD73 (Homo sapiens, UniProt P21589).
T1 sequence (P21589 27-549): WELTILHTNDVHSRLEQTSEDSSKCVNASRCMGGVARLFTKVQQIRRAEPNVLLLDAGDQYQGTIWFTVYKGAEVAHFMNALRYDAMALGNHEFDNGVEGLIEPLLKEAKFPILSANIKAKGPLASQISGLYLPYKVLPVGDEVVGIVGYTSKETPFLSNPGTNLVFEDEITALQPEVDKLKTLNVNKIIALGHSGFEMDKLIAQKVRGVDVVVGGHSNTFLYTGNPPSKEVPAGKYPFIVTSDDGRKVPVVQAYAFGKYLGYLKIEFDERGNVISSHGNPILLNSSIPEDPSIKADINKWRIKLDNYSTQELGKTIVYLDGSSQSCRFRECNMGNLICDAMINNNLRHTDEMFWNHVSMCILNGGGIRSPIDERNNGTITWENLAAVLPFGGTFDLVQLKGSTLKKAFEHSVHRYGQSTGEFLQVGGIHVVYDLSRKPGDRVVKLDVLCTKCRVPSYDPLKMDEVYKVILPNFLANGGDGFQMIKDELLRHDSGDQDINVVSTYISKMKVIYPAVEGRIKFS
The experiment in a line: CD73 inhibition (Potency: CD73 IC50). The class given is biochemical.
For orientation: IC50 means the point on the concentration scale where inhibition reaches its midpoint. Low values mean greater potency, high ones weaker potency. With `CN(C[C@H]1O[C@@H](n2cnc3c(N[C@H]4CCOC4)nc(Cl)nc32)[C@H](O)[C@@H]1O)C(=O)CP(=O)(O)O` [AL], the IC50 fell in the range of 100 to 1000 nM. For the molecule `O=C(CP(=O)(O)O)N(CC1CC1)C[C@H]1O[C@@H](n2ncc3c(NC4CCCC4)nc(Cl)nc32)[C@H](O)[C@@H]1O` [K], the IC50 is below 100 nM.

Take `COCCOC(=O)OCOP(=O)(O)CC(=O)N(C)C[C@H]1O[C@@H](n2cnc3c(NC4CCCC4)nc(Cl)nc32)[C@H](O)[C@@H]1O` [AF]: the IC50 is above 1000 nM. In turn, `CC(C)OC(=O)[C@H](C)NP(=O)(CC(=O)N(C)C[C@H]1O[C@@H](n2cnc3c(NC4CCCC4)nc(Cl)nc32)[C@H](O)[C@@H]1O)N[C@@H](C)C(=O)OC(C)C` [Example P] gave an IC50 above 1000 nM.

`CC(C)OC(=O)OCOP(=O)(O)CC(=O)N(C)C[C@H]1O[C@@H](n2cnc3c(N[C@H]4CCOC4)nc(Cl)nc32)[C@H](O)[C@@H]1O` [AN] registered an IC50 above 1000 nM.

Turning to `CCOC(=O)OCOP(=O)(CC(=O)N(C)C[C@H]1O[C@@H](n2cnc3c(NC4CCCC4)nc(Cl)nc32)[C@H](O)[C@@H]1O)OCOC(=O)OCC` [Y], the IC50 was above 1000 nM.

`CN(C[C@H]1O[C@@H](n2ncc3c(NC4CCCC4)nc(Cl)nc32)[C@H](O)[C@@H]1O)C(=O)CP(=O)(O)O` [J]: the IC50 fell in the range of 100 to 1000 nM.

As to `CN(C[C@H]1O[C@@H](n2cnc3c(NC4CCCC4)nc(Cl)nc32)[C@H](O)[C@@H]1O)C(=O)CP1(=O)OCc2ccccc2O1` (stereo partly drawn) [T], the IC50 was above 1000 nM. The same measure for `CN(C[C@H]1O[C@@H](n2cnc3c(NC4CCCC4)nc(Cl)nc32)[C@H](O)[C@@H]1O)C(=O)CP1(=O)Nc2ccccc2CO1` (stereo partly drawn) [R]: above 1000 nM; for `O=C(CP(=O)(O)O)N(CCO)C[C@H]1O[C@@H](n2cnc3c(NC4CCCC4)nc(Cl)nc32)[C@H](O)[C@@H]1O` [F]: below 100 nM; for `CCN(C[C@H]1O[C@@H](n2cnc3c(N(C)C4CCCC4)nc(Cl)nc32)[C@H](O)[C@@H]1O)C(=O)CP(=O)(O)O` [H]: below 100 nM. The same measure for `CC(C)N(C[C@H]1O[C@@H](n2cnc3c(NC4CCCC4)nc(Cl)nc32)[C@H](O)[C@@H]1O)C(=O)CP(=O)(O)O` [B]: 100 to 1000 nM; for `CN(C[C@H]1O[C@@H](n2cnc3c(NC4CCCC4)nc(Cl)nc32)[C@@H](F)[C@@H]1O)C(=O)CP(=O)(O)O` [G]: above 1000 nM.

The molecule `CN(C[C@H]1O[C@@H](n2cnc3c(NC4CCCC4)nc(Cl)nc32)[C@H](O)[C@@H]1O)C(=O)CP(=O)(O)OCOC(=O)C(C)(C)C` [AH] gave an IC50 above 1000 nM. On to `CC(C)OC(=O)OCOP(=O)(O)CC(=O)N(CC1CC1)C[C@H]1O[C@@H](n2cnc3c(NC4CCCC4)nc(Cl)nc32)[C@H](O)[C@@H]1O` [AK], for which the IC50 was above 1000 nM. `O=C(CP(=O)(O)O)NC[C@H]1O[C@@H](n2cnc3c(NC4CCCC4)nc(Cl)nc32)[C@H](O)[C@@H]1O` [A] gave an IC50 of 100 to 1000 nM. The figure for `COC(=O)[C@H](C)NP(=O)(CC(=O)N(C)C[C@H]1O[C@@H](n2cnc3c(NC4CCCC4)nc(Cl)nc32)[C@H](O)[C@@H]1O)Oc1ccccc1` (stereo partly drawn) [N] is above 1000 nM. The figure for `CC(C)OC(=O)[C@H](C)NP(=O)(CC(=O)N(C)C[C@H]1O[C@@H](n2cnc3c(NC4CCCC4)nc(Cl)nc32)[C@H](O)[C@@H]1OC(=O)C(C)C)Oc1ccccc1` (stereo partly drawn) [O] is above 1000 nM; for `O=C(O)CN(C[C@H]1O[C@@H](n2cnc3c(NC4CCCC4)nc(Cl)nc32)[C@H](O)[C@@H]1O)C(=O)CP(=O)(O)O` [E] it is below 100 nM; for `COC(=O)OCOP(=O)(O)CC(=O)N(C)C[C@H]1O[C@@H](n2cnc3c(NC4CCCC4)nc(Cl)nc32)[C@H](O)[C@@H]1O` [AB] it is above 1000 nM.

Molecule `CN(C[C@H]1O[C@@H](n2cnc3c(N[C@H]4CCOC4)nc(Cl)nc32)[C@H](O)[C@@H]1O)C(=O)CP(=O)(OCOC(=O)OCC(C)(C)C)OCOC(=O)OCC(C)(C)C` [AR] came in with a 50% inhibitory concentration (IC50) above 1000 nM.

In turn, `COCCOC(=O)OCOP(=O)(CC(=O)N(C)C[C@H]1O[C@@H](n2cnc3c(N[C@H]4CCOC4)nc(Cl)nc32)[C@H](O)[C@@H]1O)OCOC(=O)OCCOC` [AO] showed an IC50 above 1000 nM. For `CC(C)OC(=O)[C@H](C)NP(=O)(CC(=O)N(C)C[C@H]1O[C@@H](n2cnc3c(NC4CCCC4)nc(Cl)nc32)[C@H](O)[C@@H]1O)Oc1ccccc1` (stereo partly drawn) [M], the IC50 was above 1000 nM. The same measure for `CC(C)OC(=O)OCOP(=O)(O)CC(=O)N(C)C[C@H]1O[C@@H](n2cnc3c(NC4CCCC4)nc(Cl)nc32)[C@H](O)[C@@H]1O` [X]: above 1000 nM; for `CCN(C[C@H]1O[C@@H](n2cnc3c(NC4CCCC4)nc(Cl)nc32)[C@H](O)[C@@H]1O)C(=O)CP(=O)(O)O` [C]: below 100 nM; for `CN(C[C@H]1O[C@@H](n2cnc3c(NC4CCCC4)nc(Cl)nc32)[C@H](O)[C@@H]1O)C(=O)CP(=O)(Oc1ccccc1)Oc1ccccc1` [U]: above 1000 nM. As to `COC(=O)OCOP(=O)(CC(=O)N(C)C[C@H]1O[C@@H](n2cnc3c(NC4CCCC4)nc(Cl)nc32)[C@H](O)[C@@H]1O)OCOC(=O)OC` [AA], the IC50 was above 1000 nM.

Consider `CC(C)OC(=O)OCOP(=O)(CC(=O)N(CC1CC1)C[C@H]1O[C@@H](n2cnc3c(NC4CCCC4)nc(Cl)nc32)[C@H](O)[C@@H]1O)OCOC(=O)OC(C)C` [AJ], for which the IC50 was above 1000 nM. The figure for `O=C(CP(=O)(O)O)N(CC1CC1)C[C@H]1O[C@@H](n2cnc3c(NC4CCCC4)nc(Cl)nc32)[C@H](O)[C@@H]1O` [AI] is below 100 nM; for `CN(C[C@H]1O[C@@H](n2cnc3c(NC4CCCC4)nc(Cl)nc32)[C@H](O)[C@@H]1O)C(=O)CP1(=O)OCCC(c2cccc(Cl)c2)O1` (stereo partly drawn) [Q] it is above 1000 nM. The same measure for `CC(C)OC(=O)OCOP(=O)(CC(=O)N(C)C[C@H]1O[C@@H](n2cnc3c(NC4CCCC4)nc(Cl)nc32)[C@H](O)[C@@H]1O)OCOC(=O)OC(C)C` [W]: above 1000 nM; for `CCOC(=O)OCOP(=O)(CC(=O)N(C)C[C@H]1O[C@@H](n2cnc3c(N[C@H]4CCOC4)nc(Cl)nc32)[C@H](O)[C@@H]1O)OCOC(=O)OCC` [AP]: above 1000 nM. The same measure for `CN(C[C@H]1O[C@@H](n2cnc3c(NC4CCCC4)nc(Cl)nc32)[C@H](O)[C@@H]1O)C(=O)CP(=O)(O)OCOC(=O)OCC(C)(C)C` [AD]: above 1000 nM; for `Cc1cccc2c1NP(=O)(CC(=O)N(C)C[C@H]1O[C@@H](n3cnc4c(NC5CCCC5)nc(Cl)nc43)[C@H](O)[C@@H]1O)OC2` (stereo partly drawn) [S]: above 1000 nM. Take `O=C(CP(=O)(O)O)N(Cc1ccccc1)C[C@H]1O[C@@H](n2cnc3c(NC4CCCC4)nc(Cl)nc32)[C@H](O)[C@@H]1O` [D]: the IC50 was below 100 nM. The same measure for `CN(C[C@H]1O[C@@H](n2cnc3c(NC4CCCC4)nc(Cl)nc32)[C@H](O)[C@@H]1O)C(=O)CP(=O)(OCOC(=O)C(C)(C)C)OCOC(=O)C(C)(C)C` [AG]: above 1000 nM; for `CCOC(=O)OCOP(=O)(O)CC(=O)N(C)C[C@H]1O[C@@H](n2cnc3c(NC4CCCC4)nc(Cl)nc32)[C@H](O)[C@@H]1O` [Z]: above 1000 nM. The same measure for `CN(c1nc(Cl)nc2c1ncn2[C@@H]1O[C@H](CN(CC2CC2)C(=O)CP(=O)(O)O)[C@@H](O)[C@H]1O)C1CCCC1` [I]: below 100 nM; for `CN(C[C@H]1O[C@@H](n2cnc3c(N[C@H]4CCOC4)nc(Cl)nc32)[C@H](O)[C@@H]1O)C(=O)CP(=O)(O)OCOC(=O)OCC(C)(C)C` [AS]: above 1000 nM; for `CN(C[C@H]1O[C@@H](n2cnc3c(NC4CCCC4)nc(Cl)nc32)[C@H](O)[C@@H]1O)C(=O)CP(=O)(O)O` [L]: below 100 nM.

As for `CCOC(=O)OCOP(=O)(O)CC(=O)N(C)C[C@H]1O[C@@H](n2cnc3c(N[C@H]4CCOC4)nc(Cl)nc32)[C@H](O)[C@@H]1O` [AQ], the IC50 is above 1000 nM.

Turning to `CN(C[C@H]1O[C@@H](n2cnc3c(NC4CCCC4)nc(Cl)nc32)[C@H](O)[C@@H]1O)C(=O)CP(=O)(O)Oc1ccccc1` [V], the IC50 was above 1000 nM. The same measure for `CC(C)OC(=O)OCOP(=O)(CC(=O)N(C)C[C@H]1O[C@@H](n2cnc3c(N[C@H]4CCOC4)nc(Cl)nc32)[C@H](O)[C@@H]1O)OCOC(=O)OC(C)C` [AM]: above 1000 nM; for `CN(C[C@H]1O[C@@H](n2cnc3c(NC4CCCC4)nc(Cl)nc32)[C@H](O)[C@@H]1O)C(=O)CP(=O)(OCOC(=O)OCC(C)(C)C)OCOC(=O)OCC(C)(C)C` [AC]: above 1000 nM.

In turn, `COCCOC(=O)OCOP(=O)(CC(=O)N(C)C[C@H]1O[C@@H](n2cnc3c(NC4CCCC4)nc(Cl)nc32)[C@H](O)[C@@H]1O)OCOC(=O)OCCOC` [AE] had an IC50 above 1000 nM.
